Key:
Assay in all cases: relative viability (nuclei count vs DMSO), 5 days (fraction); higher = more cells survive
[1] = compound: CC1=C(C=C(C=C1)NC(=O)C2=CC(=CC=C2)C(C)(C)C#N)NC3=CC4=C(C=C3)N=CN(C4=O)C [AZ628] + Cc1nc(NC(=O)N2CCC[C@H]2C(N)=O)sc1-c1ccnc(C(C)(C)C(F)(F)F)c1 [Alpelisib] (partner 2 µM)
Summary of the method: (§1)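 Lung cancer cell lines, seeded in 1536-well plates, were treated the following day by pin tool with a single drug or with five library-drug doses (not always all listed) in √10 steps on top of a fixed anchor-drug dose. Cells were fixed and nuclei stained in one step after 5 days, and nuclei were counted. Relative viability is the nuclei count for treated wells divided by that for vehicle wells, reported as medians of duplicate plates.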

[2] = compound: C[As](C)SC[C@H](NC(=O)CC[C@H](N)C(=O)O)C(=O)NCC(=O)O [Darinaparsin] + Cc1nc(Nc2ncc(C(=O)Nc3c(C)cccc3Cl)s2)cc(N2CCN(CCO)CC2)n1 [Dasatinib] (partner 0.075 µM)
Summary of the method: as §1

[3] = compound: CC1=C(C=C(C=C1)NC(=O)C2=CC(=CC=C2)C(C)(C)C#N)NC3=CC4=C(C=C3)N=CN(C4=O)C [AZ628] + O=C(CCCCCCC(=O)Nc1ccccc1)NO [Vorinostat] (partner 1 µM)
Summary of the method: as §1

[4] = compound: C[As](C)SC[C@H](NC(=O)CC[C@H](N)C(=O)O)C(=O)NCC(=O)O [Darinaparsin] + Cc1cc(Nc2cc(N3CCN(C)CC3)nc(Sc3ccc(NC(=O)C4CC4)cc3)n2)n[nH]1 [Tozasertib] (partner 0.1 µM)
Summary of the method: as §1

Row | Cell Line | relative viability ([1]; first compound 0.08 µM) | relative viability ([1]; first compound 0.253 µM) | relative viability ([1]; first compound 0.8 µM) | relative viability ([1]; first compound 2.53 µM) | relative viability ([1]; first compound 8 µM) | relative viability ([2]; first compound 0.08 µM) | relative viability ([2]; first compound 0.8 µM) | relative viability ([2]; first compound 2.53 µM) | relative viability ([2]; first compound 8 µM) | relative viability ([3]; first compound 0.08 µM) | relative viability ([3]; first compound 0.253 µM) | relative viability ([3]; first compound 0.8 µM) | relative viability ([3]; first compound 2.53 µM) | relative viability ([3]; first compound 8 µM) | relative viability ([4]; first compound 0.08 µM) | relative viability ([4]; first compound 0.8 µM) | relative viability ([4]; first compound 2.53 µM) | relative viability ([4]; first compound 8 µM)
1 | HCC-827 | 0.903 | 0.9 | 0.889 | 0.984 | 0.555 | 0.268 | 0.397 | 0.243 | 0.309 | 0.963 | 0.795 | 0.906 | 0.921 | 0.552 | 0.435 | 0.453 | 0.422 | 0.491
2 | HOP-62 | 1.02 | 1.11 | 0.947 | 1.24 | 0.451 | 0.708 | 0.786 | 0.434 | 0.693 | 0.641 | 0.701 | 0.641 | 0.432 | 0.289 | 0.352 | 0.414 | 0.343 | 0.354
3 | IA-LM | 0.805 | 0.731 | 0.552 | 0.586 | 0.207 |  |  |  |  | 1.01 | 0.962 | 0.657 | 0.722 | 0.21 |  |  |  | 
4 | LC-2-ad | 0.968 | 0.865 | 0.982 | 0.851 | 0.466 | 0.683 | 0.628 | 0.454 | 0.466 | 0.78 | 0.865 | 0.796 | 0.74 | 0.656 | 0.49 | 0.425 | 0.329 | 0.35
5 | LCLC-103H | 0.924 | 1.07 | 0.981 | 0.986 | 0.919 | 0.577 | 0.449 | 0.409 | 0.533 | 0.727 | 0.804 | 0.776 | 0.712 | 0.728 | 0.491 | 0.517 | 0.507 | 0.441
6 | LK-2 | 1.23 | 1.27 | 0.834 | 1.08 | 0.296 | 0.201 |  | 0.301 | 0.274 | 0.272 | 0.244 | 0.396 | 0.275 | 0.222 | 0.203 |  | 0.177 | 0.175
7 | LOU-NH91 | 0.714 | 0.747 | 0.691 | 0.687 | 0.577 | 0.632 | 0.512 | 0.49 | 0.622 | 1 | 0.911 | 0.904 | 0.794 | 0.675 | 0.743 | 0.647 | 0.666 | 0.761
8 | LU99A | 0.456 | 0.478 | 0.628 | 0.554 | 0.216 | 0.627 | 0.59 | 0.473 | 0.519 | 0.511 | 0.473 | 0.496 | 0.52 | 0.33 | 0.262 | 0.295 | 0.256 | 0.243
9 | LXF-289 | 1.01 | 1.01 | 0.963 | 0.961 | 0.626 | 0.228 | 0.204 | 0.164 | 0.213 | 0.817 | 0.755 | 0.701 | 0.71 | 0.473 | 0.204 | 0.195 | 0.204 | 0.229

Source: the supplement of paper PMC10307832
